Measured values reported in patent publication US20100129478A1, “Plant Extracts and Methods and Uses Therefore” (priority 2005, published 2010).

Test system: human hepatic cell line HepG2
Assay: Anti-cancer assay: cytotoxicity on HepG2 cells, trypan blue counting
Format: cell-based
Experimental: The cells were seeded at a density of 2.5×10^5 cell per ml in a 24 well plate. The cells were allowed to attach for 2 hour before adding the extracts at a concentration of 10 μg/ml. […] The cell viability was determined after 24 hours.
Seed HepG2 at a cell density of 2.5×10^5 cells per ml. […] Incubate in 5% CO2 incubator at 37° C. for 48 hour. Trypsinize cell. Mix with 1 part trypan blue and 4 parts PBS and count the viable cells and the non-viable cells by counting the cells that has taken typan blue (non-viable cells) and the ones that has excluded it (viable cells).

O=C1O[C@H]([C@@H](O)CO)C(O)=C1O [ascorbic acid]
No. of live cells: 66.5
